In ChEMBL document CHEMBL1126392, “Semisynthesis and biological activity of taxol analogues: baccatin III 13-(N-benzoyl-(2R,3S)-3-(p-tolyl)isoserinate), baccatin III 13-(N-(p-toluoyl)-2R,3S)-3-phenylisoserinate), baccatin III 13-(N-benzoyl-(2R,3S)-3-(p-trifluoromethylphenyl)isoserinate), and baccatin III …” (1992):
The source made the active and inactive calls. The calls are words filed in the database; no cut-off is given here.

Columns and labels:
B16 [1] = assay: Compound was evaluated for the cytotoxicity against B16 melanoma cells after 40h incubation expressed as ratio relative to that of taxol; assay type: functional, Mus musculus
[2] = biological target: Tubulin alpha chain (Sus scrofa) (UniProt P02550); assay: (§1) Concentration which causes polymerization of 50 % of the tubulin present, in 15 min at 37 C, as a ratio in comparison wth taxol (taxol ED50 = 0.7 to 0.8 uM); assay type: functional
B16 [3] = assay: Compound was evaluated for the cytotoxicity against B16 melanoma cells after 40h incubation expressed as ratio relative to that of taxol; NA - No cytotoxicity; assay type: functional, cell-based; settings: Mus musculus
[4] = as §1; assay type: functional

Chain of Tubulin alpha chain (Sus scrofa) (P02550 whole entry, looked up): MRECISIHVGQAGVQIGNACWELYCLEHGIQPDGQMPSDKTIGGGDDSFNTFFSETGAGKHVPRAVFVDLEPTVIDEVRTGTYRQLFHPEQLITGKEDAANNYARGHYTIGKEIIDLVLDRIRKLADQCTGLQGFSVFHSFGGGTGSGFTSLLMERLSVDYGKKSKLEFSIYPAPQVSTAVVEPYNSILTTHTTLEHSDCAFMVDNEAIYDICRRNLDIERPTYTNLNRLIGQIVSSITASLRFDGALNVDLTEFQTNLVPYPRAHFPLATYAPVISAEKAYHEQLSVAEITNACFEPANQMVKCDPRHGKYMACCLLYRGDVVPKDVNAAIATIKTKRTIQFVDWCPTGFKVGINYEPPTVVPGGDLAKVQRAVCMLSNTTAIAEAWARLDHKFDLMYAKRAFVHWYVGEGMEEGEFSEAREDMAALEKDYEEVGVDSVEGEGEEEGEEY

Ratio [2] | SMILES | ED50 / ED50 (taxol) (B16 [1]) | ED50 / ED50 (taxol) (B16 [3]) | Ratio [4]
6 | CC(=O)O[C@H]1C(=O)[C@@]2(C)[C@H]([C@H](OC(=O)c3ccccc3)[C@]3(O)C[C@H](OC(=O)[C@H](O)[C@@H](NC(=O)c4ccc(C(F)(F)F)cc4)c4ccccc4)C(C)=C1C3(C)C)[C@]1(OC(C)=O)CO[C@@H]1C[C@@H]2O | 17.7 |  | 
inactive | CC(=O)O[C@H]1C(=O)[C@@]2(C)[C@H]([C@H](OC(=O)c3ccccc3)[C@]3(O)C[C@H](OC(=O)[C@H](O)[C@@H](NC(=O)c4ccccc4)c4ccc(C(F)(F)F)cc4)C(C)=C1C3(C)C)[C@]1(OC(C)=O)CO[C@@H]1C[C@@H]2O |  | inactive | 
2.4 | CC(=O)O[C@H]1C(=O)[C@@]2(C)[C@H]([C@H](OC(=O)c3ccccc3)[C@]3(O)C[C@H](OC(=O)[C@H](O)[C@@H](NC(=O)c4ccccc4)c4ccc(C)cc4)C(C)=C1C3(C)C)[C@]1(OC(C)=O)CO[C@@H]1C[C@@H]2O | 3 |  | 
 | CC(=O)O[C@H]1C(=O)[C@@]2(C)[C@H]([C@H](OC(=O)c3ccccc3)[C@]3(O)C[C@H](OC(=O)[C@H](O)[C@@H](NC(=O)c4ccccc4)c4ccccc4)C(C)=C1C3(C)C)[C@]1(OC(C)=O)CO[C@@H]1C[C@@H]2O |  |  | 0.7

SMILES | Ratio [2] | ED50 / ED50 (taxol) (B16 [1]) | ED50 / ED50 (taxol) (B16 [3]) | Ratio [4]
CC(=O)O[C@H]1C(=O)[C@@]2(C)[C@H]([C@H](OC(=O)c3ccccc3)[C@]3(O)C[C@H](OC(=O)[C@H](O)[C@@H](NC(=O)c4ccc(C)cc4)c4ccccc4)C(C)=C1C3(C)C)[C@]1(OC(C)=O)CO[C@@H]1C[C@@H]2O | 1.6 | 1.4 |  | 
